Results: patent US20160256511A1, “COMPOSITIONS AND METHODS FOR THE TREATMENT OR PROPHYLAXIS OF CIRCADIAN PROTEIN RELATED CONDITIONS” (IN INGREDIENTS, INC., priority 2013, published 2016)

Assays:
Format in all cases: cell-based, Porcine
Settings in all cases: 24 hr, all three concentrations (1 μM; 5 μM; 20 μM)
[1] = test system: SIRT1; test: SIRT1 immunofluorescence in iPEC-1 cells treated with ursolic acid
Description: (§1) iPEC-1 cells were grown as a monolayer in DMEM with 10% fetal bovine serum (FBS) and the necessary supplements at 37° C. in a humidified incubator with 5% CO2. iPEC1 cells were seeded on 35 mm dishes. Experiments were initiated 48 hr after plating. Cells were treated with saline or with ursolic acid at three separate dosages (1 μM; 5 μM; or 20 μM) in the medium for 24 hr at 37° C. The cells were then washed with ice-cold PBS and fixed with 4% paraformaldehyde for 10 min at room temperature followed by permeabilization with 0.3% Triton X-100 for 10 min. After being washed with PBS three times, cells were incubated for 1 hr in PBS containing 10% normal goat serum blocking solution. The cells were subjected to immunofluorescence staining with the target specific antibodies (SIRT1, CLOCK and Bmal1) overnight at 4° C. The cells were then washed with cold PBS three times for 3 min each, and incubated with Alexa-labeled secondary antibodies (Invitrogen) at room temperature for 1 h. The cells were examined by fluorescence microscopy (a Nikon TE2000-S microscope, Nikon, Tokyo, Japan).

[2] = test system: Bmal1; test: Bmal1 immunofluorescence in iPEC-1 cells treated with ursolic acid
Description: as §1

[3] = test system: CLOCK; test: CLOCK immunofluorescence in iPEC-1 cells treated with ursolic acid
Description: as §1

C[C@H]1[C@H](C)CC[C@]2(C(=O)O)CC[C@]3(C)C(=CC[C@@H]4[C@@]5(C)CC[C@H](O)C(C)(C)[C@@H]5CC[C@]43C)[C@H]12 [ursolic acid]
intensity of immunofluorescence of SIRT1 compared with controls [1]: significantly induced the intensity of immunofluorescence | intensity of immunofluorescence of Bmal1 compared with controls [2]: significantly induced the intensity of immunofluorescence | intensity of immunofluorescence of CLOCK compared with controls [3]: significantly induced the intensity of immunofluorescence
